Each structure is given as a SMILES string. Values after ≈ are worked out from the molar mass of the structure shown. Bounds are passed on as bounds.

For the series the following is noted: buffer; pH 7.4; 200.0 µM.
In general, solubility (kinetic) refers to solubility judged after dilution from a stock solution rather than from solid. Molecule `CNC(=O)Nc1ccccc1C(=O)Nc1ccccc1` came in with a solubility (kinetic) of more than 40.4 µg/mL. In turn, `COc1ccc2[nH]c(C(=O)Nc3ccc4c(c3)OCO4)cc2c1` yielded a solubility (kinetic) of 1.1 µg/mL (≈ 3.54 µM). As to `COc1ccc(Cl)cc1C(=O)NCCCSc1ccccc1`, the solubility (kinetic) stood at 7.8 µg/mL (≈ 23.2 µM). Molecule `O=C(c1ccc(S(=O)(=O)Nc2ccccc2F)cc1)N1CCN(c2ccccn2)CC1` came in with a solubility (kinetic) of more than 66.1 µg/mL. On to `CNC(=O)N1CCC(C(=O)c2c(C)c(C)c(C)c(C)c2C)CC1`, for which the solubility (kinetic) stood at 36.5 µg/mL (≈ 115 µM). `CCC(CC)C(=O)N1CC(=O)Nc2ccc(F)cc2C1c1ccccc1` (stereo not drawn): the kinetic solubility amounted to 51.9 µg/mL (≈ 146 µM). As to `CSc1ccc(/C=C/C(=O)N2CCN(c3ccccn3)CC2)cc1`, the solubility (kinetic) is 2.3 µg/mL (≈ 6.78 µM). As to `C#Cc1cccc(NC(=O)C2CCN(C(C)=O)CC2)c1`, the kinetic solubility is more than 40.5 µg/mL. The result for `Cc1ccnc(NC(=O)CNC(=O)c2ccccc2Br)c1` reads 48.5 µg/mL (≈ 139 µM); that for `COc1ccc(CCNC(=O)c2cccnc2Cl)cc1OC`, more than 48.1 µg/mL.

On to `CC1CN=C(Nc2ccc(F)cc2)S1` (stereo not drawn), for which the kinetic solubility is more than 31.5 µg/mL. The molecule `CC(C)CC1NC(=O)N(CC(=O)Nc2cc([N+](=O)[O-])ccc2F)C1=O` (stereo not drawn) showed a kinetic solubility of more than 52.8 µg/mL. Molecule `Cc1ccc(OCCNC(=O)CCc2nc3sc4c(c3c(=O)[nH]2)CCCC4)cc1` returned a kinetic solubility of 5.6 µg/mL (≈ 13.6 µM). For the molecule `Cc1ccc(S(=O)(=O)NC2CC2)cc1`, the solubility (kinetic) was more than 31.7 µg/mL. `Cc1c(C)n(C)c2ccc(C(=O)NCCN3CCOCC3)cc12` returned a solubility (kinetic) of more than 47.3 µg/mL.

`O=C1CN(C(=O)CNCc2ccc(Cl)cc2)c2ccccc2N1` returned a kinetic solubility of 39.7 µg/mL (≈ 120 µM). `CN1CCN(NC(=S)NC(C)(C)CC(C)(C)C)CC1` showed a kinetic solubility of more than 43 µg/mL. As for `O=C(c1ccccc1)N1C(=O)C(c2ccccc2)Oc2ccccc21` (stereo not drawn), the figure is 3.1 µg/mL (≈ 9.41 µM); as for `Cc1ccccc1NC(=S)Nc1ccccc1`, 18.8 µg/mL (≈ 77.6 µM). Regarding `O=C(O)C1C2CCC(C2)C1C(=O)Nc1ccc(Cl)c(Cl)c1` (stereo not drawn), the solubility (kinetic) was less than 0.7 µg/mL. Turning to `Cc1cccc(NC(=O)c2ccc3c(c2)CCN3S(C)(=O)=O)c1C`, the solubility (kinetic) came out at 1.6 µg/mL (≈ 4.65 µM). The molecule `O=C(O)CCc1[nH]c2ccccc2c1Sc1ccccc1` registered a kinetic solubility of more than 44.6 µg/mL. The result for `CC(=O)C1=C(O)C(=O)N(c2ccccn2)C1c1ccc(C)cc1` (stereo not drawn) reads more than 46.3 µg/mL. `O=C(CN1C(=O)NC2(CCCc3ccccc32)C1=O)NCCc1ccc(F)cc1` (stereo not drawn) registered a solubility (kinetic) of more than 59.3 µg/mL. As for `Cc1ccc(C(=O)Nc2ccc(N3CCN(C)CC3)nc2)cc1`, the kinetic solubility is more than 46.6 µg/mL. With `COCC(=O)Nc1ccc2nc3n(c(=O)c2c1)CCCCC3`, the solubility (kinetic) was 41.7 µg/mL (≈ 138 µM). In the case of `CC(=O)c1c(COC(=O)c2ccccc2Cl)nc2ccccc2[n+]1[O-]`, the solubility (kinetic) was determined as 15.9 µg/mL (≈ 44.6 µM). Consider `c1ccc(-n2cnc3cc(NCc4ccco4)ccc32)cc1`, for which the solubility (kinetic) amounted to 35.5 µg/mL (≈ 123 µM). Consider `O=C(COC(=O)/C=C/c1cccc(Br)c1)NCc1cccs1`, for which the kinetic solubility was determined as 5 µg/mL (≈ 13.1 µM). For the molecule `O=C(CCCNC(=O)c1ccc(Cl)cc1)Nc1ccccc1F`, the kinetic solubility worked out at 33.5 µg/mL (≈ 100 µM). The molecule `O=C(Nc1ncccn1)c1ccc(Cl)c([N+](=O)[O-])c1` registered a solubility (kinetic) of more than 41.8 µg/mL. For `O=C(Cc1ccc([N+](=O)[O-])cc1)NCc1ccccn1`, the kinetic solubility is more than 40.7 µg/mL. Turning to `O=C1CC(c2ccccc2)CC(=O)N1c1ccccc1`, the kinetic solubility was 11.3 µg/mL (≈ 42.6 µM). Turning to `COc1ccc(CC(=O)OCC(=O)NCc2ccc(F)cc2)cc1`, the kinetic solubility is more than 49.7 µg/mL. In turn, `O=S(=O)(NCCc1ccc(Cl)cc1)c1cccs1` had a solubility (kinetic) of more than 45.3 µg/mL.

Regarding `O=C1c2ccccc2S(=O)(=O)N1Cc1c(F)cccc1Cl`, the solubility (kinetic) was less than 0.7 µg/mL. `CCc1ccccc1NC(=O)COC(=O)c1cccs1` came in with a solubility (kinetic) of 2.9 µg/mL (≈ 10 µM). In turn, `O=C(Nc1cccc(C(=O)O)c1)Nc1cccc2ccccc12` gave a solubility (kinetic) of more than 45.9 µg/mL. The molecule `Cc1cc(Cl)ccc1NC(=S)NC(C)(C)C` displayed a kinetic solubility of 28.3 µg/mL (≈ 110 µM). The result for `COc1ccc(CCNC(=O)Cc2ccc(C)cc2)cc1OC` reads more than 47 µg/mL. Regarding `CC(C)OP(=O)(O)NC(=O)c1ccccc1`, the kinetic solubility is more than 36.5 µg/mL. As to `COc1cc([N+](=O)[O-])ccc1NC(=O)NCc1ccco1`, the solubility (kinetic) was 13.8 µg/mL (≈ 47.4 µM). Regarding `CN(CCO)C(=O)c1ccc(-c2nn(C)c(=O)c3ccccc23)cc1`, the kinetic solubility was more than 50.6 µg/mL. `Cc1ccc(N=C2NC(=O)/C(=C/c3cccn3C)S2)cc1` displayed a solubility (kinetic) of 2 µg/mL (≈ 6.73 µM).

In turn, `O=C(NCc1ccc(Cl)cc1)C1CCN(C(=O)c2ccco2)CC1` gave a kinetic solubility of more than 52 µg/mL.

Regarding `Cc1nc(NC(=O)c2ccccc2O)sc1C`, the kinetic solubility was 10.2 µg/mL (≈ 41.1 µM).

For the molecule `NC(=O)c1ccc(NC(=O)COC(=O)/C=C/c2ccc(Br)o2)cc1`, the kinetic solubility worked out at 7.3 µg/mL (≈ 18.6 µM). `CN1CCCC(C(O)(c2ccccc2)c2ccccc2)C1` (stereo not drawn) yielded a kinetic solubility of 40.8 µg/mL (≈ 145 µM).

With `COc1ccc(CN(C)C(=O)c2ccncc2)c(OC)c1`, the kinetic solubility was more than 42.9 µg/mL.

For `COc1ccc(Cl)cc1NC(=S)NCCN1CCOCC1`, the solubility (kinetic) is more than 49.5 µg/mL.

As for `COc1ccccc1NC(=O)C1=C(C)NC(=O)NC1c1ccco1` (stereo not drawn), the solubility (kinetic) is more than 49.1 µg/mL. The result for `O=c1[nH]c(=S)n(C2CCCCC2)c(O)c1C=NCCN1CCOCC1` reads 53 µg/mL (≈ 145 µM). In the case of `COC(=O)Cc1c(O)ccn(Cc2ccc(OC)c(OC)c2)c1=O`, the kinetic solubility was more than 50 µg/mL. `COCC(C)NC(=O)c1cc2cccc([N+](=O)[O-])c2[nH]1` (stereo not drawn) had a solubility (kinetic) of more than 41.6 µg/mL. `Cc1nc(NC(=O)c2ccco2)sc1C(=O)O` registered a kinetic solubility of more than 37.8 µg/mL. For the molecule `CC(=O)c1ccc(NC(=O)CCNC(=O)c2ccc(Cl)cc2)cc1`, the solubility (kinetic) stood at 5.4 µg/mL (≈ 15.7 µM).

Take `CC1=C(C(=O)OCc2ccccc2)C(c2cccc(F)c2)NC(=O)N1` (stereo not drawn): the solubility (kinetic) was 2.5 µg/mL (≈ 7.35 µM). The molecule `Cc1ccccc1OCC(=O)NCCCNC(=O)c1ccccn1` had a solubility (kinetic) of more than 49.1 µg/mL. Molecule `COC(=O)c1ccc(NC(=O)c2cc[n+](Cc3ccccc3)cc2)cc1.[Cl-]` returned a kinetic solubility of 50.7 µg/mL. In turn, `CC(C)CN(C(=O)CSc1nc2ccccc2c(=O)[nH]1)c1c(N)n(CC(C)C)c(=O)[nH]c1=O` registered a kinetic solubility of 10.5 µg/mL (≈ 22.2 µM). As for `CCN(CC(=O)Nc1cccc(OC)c1)C(=O)c1ccco1`, the figure is more than 45.3 µg/mL; as for `O=C1CSC(=S)N1c1ccc(Cl)c(Cl)c1`, less than 0.6 µg/mL; as for `COc1cccc(OC)c1C(=O)Nc1cccc(-c2nc3ccccc3[nH]2)c1`, 11.1 µg/mL (≈ 29.7 µM).

Take `O=C1Nc2ccc(Cl)cc2C(=O)C1(F)c1ccccc1` (stereo not drawn): the solubility (kinetic) is 1.7 µg/mL (≈ 5.87 µM). The result for `CC(=O)N(c1cccc(Br)c1)c1nc(C)cc(C)c1C#N` reads more than 51.6 µg/mL; that for `CC(=O)Oc1ccc(-c2csc(Nc3cccc(C)n3)n2)cc1`, less than 0.2 µg/mL. As for `O=C(NCC(O)CO)c1csc(Nc2cccc3ccccc23)n1` (stereo not drawn), the figure is 38.5 µg/mL (≈ 112 µM). Molecule `COc1cc(C(=O)OCC(=O)NCCCc2ccccc2)ccc1OCC(C)C` registered a kinetic solubility of 1.2 µg/mL (≈ 3 µM). The result for `NC(=S)/N=C/c1c(O)[nH]c(=O)[nH]c1=O` reads 15.6 µg/mL (≈ 72.8 µM); that for `COc1nc(OC)nc(N2CCC(C(=O)NC3CC3)CC2)n1`, 37 µg/mL (≈ 120 µM). For `C=C1CCc2c([nH]c3ccc(OCC(C)C)cc23)C1=O`, the solubility (kinetic) is 0.8 µg/mL (≈ 2.97 µM).

Take `Cc1ccc(C(=O)Nc2cccnc2)cc1Cl`: the solubility (kinetic) is 35.6 µg/mL (≈ 144 µM). For `COc1ccc(CNc2ncnc3cc(OC)c(OC)cc23)cc1OC`, the solubility (kinetic) is more than 53.3 µg/mL. As for `CC1CC(C)CN(C(=O)C(Cc2ccccc2)n2cccc2)C1` (stereo not drawn), the figure is 4.4 µg/mL (≈ 14.2 µM); as for `Cc1cc2ccccc2cc1CN1CCCCC1`, 9.6 µg/mL (≈ 40.1 µM); as for `COc1ccc(C(=O)NCC(c2ccco2)N2CCOCC2)cc1OC` (stereo not drawn), more than 54.1 µg/mL. `Cc1nc2cc(N)ccc2n1C1CCCCC1.Cl` had a kinetic solubility of more than 45.3 µg/mL. Turning to `Cc1ccc2nc(/N=C(\N)NC(=O)NC3CCCCC3)nc(C)c2c1`, the solubility (kinetic) came to 8 µg/mL (≈ 23.5 µM). For the molecule `Cc1ccccc1-c1nc2sc(C)c(C)c2c(=O)o1`, the solubility (kinetic) was less than 0.6 µg/mL. Turning to `O=C(COc1ccc(S(=O)(=O)NC2CCCCC2)cc1)NC1CC1`, the solubility (kinetic) was more than 52.9 µg/mL. For `COCCOc1ccc(C(F)(F)F)cc1NC(=O)CN1C(=O)NC2(CCCc3ccccc32)C1=O` (stereo not drawn), the kinetic solubility worked out at 16.8 µg/mL (≈ 34.2 µM). As for `Cc1sc2nc(COC(=O)c3ccc(O)cc3)[nH]c(=O)c2c1C`, the figure is 8 µg/mL (≈ 24.2 µM); as for `CCC(C(=O)OCC(=O)NCc1ccc2c(c1)OCO2)c1ccccc1` (stereo not drawn), 46 µg/mL (≈ 129 µM); as for `CCN(CC)CCNC(=O)c1cc2cc3ccc(OC)cc3nc2o1`, 45.9 µg/mL (≈ 134 µM). As for `Cc1cccc(OCCCCn2c(CO)nc3ccccc32)c1`, the figure is 31.4 µg/mL (≈ 101 µM); as for `Cc1ccc(C(=O)C(C)OC(=O)Cn2c(C)csc2=O)cc1` (stereo not drawn), more than 47.9 µg/mL. The molecule `COc1ccc(OC)c(NC(=O)COC(=O)C2CCCCC2)c1` had a solubility (kinetic) of 2.9 µg/mL (≈ 9.02 µM). In turn, `O=C(NCc1c[nH]c2ccccc12)c1ccccc1` returned a solubility (kinetic) of more than 37.5 µg/mL. `O=Cc1ccnc(-c2ccc(OC(=O)c3ccco3)cc2)n1` displayed a kinetic solubility of 33.1 µg/mL (≈ 113 µM). Molecule `CC(C)[C@H](NC(=O)c1ccccc1F)C(=O)NC1CCCCC1` yielded a solubility (kinetic) of more than 48.1 µg/mL. For `Cc1cc(NC(=O)CC2CCCC2)ccc1Br`, the solubility (kinetic) turned out to be 1.6 µg/mL (≈ 5.4 µM).

The molecule `CC(=O)N[C@@H](CS)C(=O)O` yielded a solubility (kinetic) of more than 24.5 µg/mL. With `CNC(=O)CCc1ccc(OC)cc1`, the kinetic solubility was more than 29 µg/mL. The result for `Cc1ccc(C)c(S(=O)(=O)/N=C(/Nc2ccccc2)c2ccccc2)c1` reads 17.2 µg/mL (≈ 47.2 µM). The result for `O=C(Nc1cccnc1)OCc1ccccc1` reads 23 µg/mL (≈ 101 µM); that for `CN1CCN(c2ccc(Cl)cc2NC(=O)/C=C/c2cccc(F)c2)CC1`, 34.4 µg/mL (≈ 92 µM); that for `COc1cccc(C2CCCCN(C)C2=O)c1` (stereo not drawn), 32.7 µg/mL (≈ 140 µM). The result for `Cc1ccc(/C=C2\C(=O)NC(=S)N(c3ccc(F)cc3)C2=O)o1` reads 45.9 µg/mL (≈ 139 µM); that for `OCC1(CCCc2ccccc2)CCN(C2CCC2)CC1`, more than 43.1 µg/mL; that for `CC(C)(C)C(=O)OCc1nc(-c2ccc3c(c2)OCCO3)cs1`, less than 0.7 µg/mL. Molecule `O=C1N(Cc2cccc(Cl)c2)C[C@@H]2C[C@@H](c3ccccn3)N3CCC[C@@]123` yielded a solubility (kinetic) of 39 µg/mL (≈ 106 µM). The molecule `Cc1cc(C(F)(F)F)nn1CC(=O)N(C)c1ccccc1` registered a solubility (kinetic) of more than 44.6 µg/mL. `N#CC1(N2CCN(C(=O)c3ccccc3)CC2)CCCCC1` came in with a kinetic solubility of 35.9 µg/mL (≈ 121 µM).

(Values after PubChem BioAssay AID1996.)
